A word on the solubility: it is the concentration that dissolves in the medium under given conditions. High values mean a readily soluble substance, low ones a poorly soluble substance. For orientation: Ki means a dissociation constant, usually derived from enzyme kinetics or from competition with a known ligand.

Converted amounts (≈) assume the structure as drawn.

Data set [1] is described as follows: Solubility of the compound in 10 mM phosphate buffer at pH 7.4 after 90 mins by LC/MS analysis. It is filed as physicochemical.
Data set [2] has as its target T1, Voltage-gated inwardly rectifying potassium channel KCNH2 (Homo sapiens, UniProt Q12809).
Description: (§1) Displacement of [3H]-astemizole from human ERG
The nature of data set [3]: Metabolic stability of the compound in hepatic S9 fraction (unknown origin) assessed as compound remaining at 10 uM after 60 mins. Conditions: read-out: Stability. It is filed as ADME, tissue-based, Liver.
The nature of data set [4]: Solubility of the compound in 10 mM phosphate buffer at pH 3 after 90 mins by LC/MS analysis. The format is physicochemical.
Another data set has as its system MDCK. Briefly: Permeability from apical to basolateral side in MDCK cells expressing human MDR1 at 10 uM after 1 hr by chromatography analysis. It is filed as ADME, cell-based, Canis lupus familiaris. Conditions: dog.
Data set [5] is described as follows: Permeability of the compound at pH 7.4 at 10 uM by PAMPA. The format is physicochemical. Conditions: pH 7.4, 10 µM.
The nature of data set [6]: Permeability of the compound at pH 5.5 at 10 uM by PAMPA. It is filed as physicochemical. The conditions noted are these: pH 5.5, 10 µM. (PAMPA measures passive passage across an artificial lipid membrane.)
A short description of data set [7]: Metabolic stability of the compound in plasma (unknown origin) assessed as compound remaining at 10 uM after 60 mins. It is filed as ADME, cell-free. The conditions noted are these: read-out: Stability.
For data set [8], the target named is Delta-type opioid receptor (Homo sapiens) (UniProt P41143).
Description: Antagonist activity at cloned human delta opioid receptor assessed as inhibition of DPDPE-induced [35S]GTPgammaS binding
Data set [9] deals with T1, Voltage-gated inwardly rectifying potassium channel KCNH2. This is another data set of the same source.
Description: as §1

T1 sequence (Q12809 whole entry): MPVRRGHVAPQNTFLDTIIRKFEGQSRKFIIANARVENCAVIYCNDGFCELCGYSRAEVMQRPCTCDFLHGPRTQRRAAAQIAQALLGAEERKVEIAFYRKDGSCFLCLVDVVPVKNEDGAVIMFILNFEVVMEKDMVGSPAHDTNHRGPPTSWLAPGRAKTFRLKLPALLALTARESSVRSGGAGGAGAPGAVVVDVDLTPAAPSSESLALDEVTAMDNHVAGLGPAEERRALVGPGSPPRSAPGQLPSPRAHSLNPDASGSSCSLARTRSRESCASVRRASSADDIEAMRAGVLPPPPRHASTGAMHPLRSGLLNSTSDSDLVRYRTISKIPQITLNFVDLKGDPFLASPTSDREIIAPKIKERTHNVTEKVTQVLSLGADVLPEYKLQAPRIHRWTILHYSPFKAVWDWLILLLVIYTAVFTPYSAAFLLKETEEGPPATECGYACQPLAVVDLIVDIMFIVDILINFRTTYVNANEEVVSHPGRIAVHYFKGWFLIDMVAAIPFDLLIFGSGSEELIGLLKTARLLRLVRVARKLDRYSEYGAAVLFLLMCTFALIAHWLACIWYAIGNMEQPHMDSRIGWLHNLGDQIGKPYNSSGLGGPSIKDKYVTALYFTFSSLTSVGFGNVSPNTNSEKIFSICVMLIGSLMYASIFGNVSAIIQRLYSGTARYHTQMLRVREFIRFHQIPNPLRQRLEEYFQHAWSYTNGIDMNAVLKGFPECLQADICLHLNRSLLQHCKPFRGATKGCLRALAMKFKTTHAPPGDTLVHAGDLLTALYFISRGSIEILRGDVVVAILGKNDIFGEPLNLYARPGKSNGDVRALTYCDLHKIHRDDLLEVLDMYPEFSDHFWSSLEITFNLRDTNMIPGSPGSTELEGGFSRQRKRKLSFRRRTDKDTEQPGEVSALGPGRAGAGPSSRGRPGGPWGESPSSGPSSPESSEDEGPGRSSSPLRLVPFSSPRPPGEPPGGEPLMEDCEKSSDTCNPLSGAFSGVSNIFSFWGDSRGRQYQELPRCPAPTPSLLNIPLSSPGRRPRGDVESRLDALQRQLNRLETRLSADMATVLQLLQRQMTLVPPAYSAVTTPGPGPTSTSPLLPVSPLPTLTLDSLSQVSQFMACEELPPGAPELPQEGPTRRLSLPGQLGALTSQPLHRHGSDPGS
Delta-type opioid receptor (Homo sapiens), sequence (P41143 whole entry): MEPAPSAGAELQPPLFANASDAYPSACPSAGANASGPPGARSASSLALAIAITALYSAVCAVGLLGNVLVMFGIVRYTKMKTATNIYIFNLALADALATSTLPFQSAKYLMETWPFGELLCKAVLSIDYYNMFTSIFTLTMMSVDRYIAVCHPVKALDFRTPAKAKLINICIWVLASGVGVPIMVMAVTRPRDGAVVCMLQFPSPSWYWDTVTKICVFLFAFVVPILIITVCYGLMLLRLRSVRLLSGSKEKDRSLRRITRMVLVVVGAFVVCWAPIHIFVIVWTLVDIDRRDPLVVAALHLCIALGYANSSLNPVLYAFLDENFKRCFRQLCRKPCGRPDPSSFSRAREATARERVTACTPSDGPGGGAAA

For `CC(C)[C@@H](CN1CC[C@@](C)(c2ccccc2)[C@@H](C)C1)NC(=O)[C@H]1Cc2ccc(O)cc2CN1`, the solubility was determined as 11 µM (≈ 4.95 µg/mL) in data set [1] and 42 µM (≈ 18.9 µg/mL) in data set [4]. In data set [2], this molecule had a Ki of 7.05 µM. For the same molecule, the remaining at 1 h, 10 µM in data set [3] worked out at 82%; in [7] it was 67%. Also, the permeability is reported as 27% in the data set with MDCK, 91.4% in data set [5] and 67.3% in data set [6].
On to `CC(C)[C@@H](CN1CCC(c2ccccc2)CC1)NC(=O)[C@H]1Cc2ccc(O)cc2CN1`, for which the Ke in data set [8] is 281 nM. In data set [9], this molecule registered a Ki of 0.777 µM.
For `CC(C)[C@@H](CN1CC[C@@](C)(c2cccc(O)c2)[C@@H](C)C1)NC(=O)[C@H]1Cc2ccc(O)cc2CN1` [JDTIC], the solubility in data set [1] stood at 11 µM (≈ 5.12 µg/mL); in data set [4], 34 µM (≈ 15.8 µg/mL). In data set [2], affinity was put at a Ki of 8.82 µM. Besides, the results for the remaining at 1 h, 10 µM in [3] and in data set [7] were 76% and 97%, respectively. In addition, the values for the permeability (with MDCK; in data set [6]) were 11% and 57.9%, respectively.
Consider `CC(C)[C@@H](CN1CCC(c2cccc(F)c2)CC1)NC(=O)[C@H]1Cc2ccc(O)cc2CN1`, for which the Ki in data set [9] came out at 0.436 µM.
`CC(C)[C@@H](CN1CCC(C)(c2cccc(F)c2)CC1)NC(=O)[C@H]1Cc2ccc(O)cc2CN1` gave a permeability with MDCK of 1.3%. For the same molecule, in data set [9], the affinity corresponds to a Ki of 4.24 µM.
